Assay [1] has as its system C. elegans strain DA2122 (LGG-1::GFP). Nature of the assay: Autophagy induction, LGG-1::GFP dots in C. elegans. Format: in vivo. The settings on record: 50 μM from eggs to second day of adulthood; FIGS. 9A-9B.
Description: C. elegans strains were cultured at 20° C. on nematode growth media (NGM) agar plates seeded with OP50 bacteria and containing 50 μM urolithin A or a corresponding concentration of DMSO as a control. The worms were treated from eggs to the second day of the adulthood. The strains used were the DA2122 (adIs2122[lgg-1::GFP+rol-6(su1006)]), which is a transgenic line expressing the LGG-1 protein (homolog of LC3 in human) fused with the green fluorescent protein (GFP). For picture acquisition, worms were immobilized with tetramisole (Sigma) and mounted on 6% agarose pads on glass slides. Images were acquired using Zeiss LSM 700 upright confocal microscope (Carl Zeiss A G, Oberkochen, Germany) from the same part of C. elegans. For each condition multiple worms were observed and imaged with the same initial parameters. Image processing and quantification of autophagic events was performed with the Fiji software.
The next assay has as its system C. elegans. The experiment in a line: Pharyngeal pumping in C. elegans. The format is in vivo. As to conditions: day 14 (aged worms); 50 μM; FIG. 11. The protocol:
To examine the effect of urolithins on muscle function, pharyngeal pumping was examined in C. elegans worms at day 7 and day 14. Worms were observed using a Nikon SMZ1500 stereomicroscope (Nikon, Melville, NY, USA). Ten L4 worms were transferred on plates containing NGM medium with vehicle (DMSO 0.1%, final concentration) or the compound of interest (urolithin A (UA), urolithin B (UB), urolithin C (UC), urolithin D (UD)) dissolved in DMSO (final concentration 50 μM) and seeded with E. coli RNAi clones as indicated. After 3 days (corresponding to day 0), newly developed 60 to 100 L4 worms were used per condition, scored and transferred to fresh plates every 3 days starting from day 1 (young adult worms). Experiments were performed at 20° C.
The pharyngeal pumping rates at day 7 and 14 were measured for 10 worms by transferring single worms to an unseeded plate and scoring for pharyngeal pumping under a dissecting microscope for 30 seconds. The pharyngeal pumping rates were then computed by extrapolating the pumping made by worms during this 30 second period.

Assay [2] deals with undifferentiated C2C12 mouse myoblasts. The experiment in a line: LC3B flow cytometry in C2C12 myoblasts. The format is cell-based. As to conditions: for LC3B expression (LC3B-FITC fluorescence): 10 μM, 50 μM and 100 μM, 24 hours, FIG. 25. The protocol: To determine the ability of urolithin A to induce autophagy in mouse muscle cells, undifferentiated C2C12 mouse myoblasts were seeded in T25 flasks and incubated overnight. Cells were incubated in 5% CO2 at 37° C. These cells were treated with one of the urolithins-urolithin A (UA), urolithin B (UB), urolithin C (UC) or urolithin D (UD)—dissolved in a 0.1% solution of DMSO for 24 hours. In one experiment UA, UB, UC and UD were dosed at a concentration of 100 μM for C2C12 myoblast treatment. In a separate study, C2C12 myoblasts were incubated at increasing concentrations of UA (10 μM, 50 μM and 100 μM). For each experiment a control culture was treated with 0.1% DMSO for the same period and served as the untreated control. In the final 30 minutes of incubation, lysosome degradation inhibitor was added to the culture. The cells were then washed with phosphate buffer solution and then treated with a 1% solution of trypsin enzyme to remove the adhesive cells from the cell culture dishes. The cells were then treated with EMD Millipore selective permeabilization reagent to permeabilize the cells so as to make the internal cellular proteins accessible to antibody treatment. Cells were then incubated with antibody to LC3B according to kit protocol (EMD Millipore FlowCellect™ Autophagy LC3 Antibody-based Assay Kit (Cat no. FCCH100171)). The cells were then washed and resuspended in the kit assay buffer. The resulting cells were then run through a flow cytometer and LC3B-FITC fluorescence was quantified to measure the level of LC3B in C2C12 cells for the various treatments. When cells undergo autophagy their intracellular levels of LC3-II increase which is detected by this method. This autophagy can be detected by fluorescent antibody labeling of LC3B, which can be measured quantitatively using flow cytometry. An increase in cellular autophagy is reflected by an increasing signal in the histogram of LC3B FITC.

The test system of assay [3] is C. elegans wild-type Bristol N2. Nature of the assay: Oxygen consumption (Seahorse XF24) in aged C. elegans. Format: in vivo.
Description: C. elegans strains were cultured at 20° C. on nematode growth media (NGM) agar plates seeded with E. coli strain OP50. Strain used was wild-type Bristol N2 provided by the Caenorhabditis Genetics Center (University of Minnesota). Urolithin A was dissolved in DMSO. Animals were exposed to compounds from eggs on plates seeded with live OP50 bacteria. Control plates were prepared with the corresponding concentration of DMSO (0.1%).
The effect of urolithin A on mitochondrial activity in aged C. elegans (10 days old) was assessed by treating C. elegans with urolithin A for 10 days of adulthood, at which time oxygen consumption was measured using the Seahorse XF24 equipment (Seahorse Bioscience Inc., North Billerica, MA). […] Worms were transferred into 24-well standard Seahorse plates (#100777-004) (50 worms per well) and oxygen consumption was measured. The basal oxygen consumption of the worms was first measured over 30 minutes at 5-minute intervals (0 min, 5 min, 15 min, 20 min, 25 min, and 30 min) with 5 replicates per interval. Respiration rates were normalized to the exact number of worms per well determined after the completion of the experiment using a stereomicroscope. […] Uncoupled oxygen consumption was measured at 5-minute intervals (35 min, 40 min, 45 min, 50 min, 55 min, and 60 min) to permit measuring the mitochondrial function over time.
The test system of assay [4] is mitochondria in muscle of C. elegans strain SJ4103. The experiment in a line: Mitochondrial GFP reporter in muscle of C. elegans. As to conditions: 50 μM from eggs, GFP after one day of adulthood; FIG. 7. The format is in vivo.
Description: The worms were treated from eggs to the first day of adulthood. The strains used were the SJ4103 (zcIs14[myo-3::GFP(mit)]), which is a stable transgenic line expressing a mitochondrially localized green fluorescent protein (GFP) with a cleavable mitochondrial import signal peptide under the control of the specific body wall muscle promoter myo-3. GFP expression and quantification was carried out according to the protocol previously described. […] Fluorimetric assays were performed using a Victor X4 multilabel plate reader (Perkin-Elmer Life Science). Eighty worms were picked at random (20 worms per well of a black-walled 96-well plate), and each well was read four times and averaged.
In assay [5] the test system is daf-16(mu86) mutant C. elegans. Nature of the assay: Lifespan assay, daf-16 mutant C. elegans. The format is in vivo. The method, then: (§1) Lifespan assays were performed with (A) wild-type (N2), (B) sir-2.1(ok434) mutant, (C) aak-2(ok524), (D) daf-16(mu86), (E) eat-2(ad465) and (F) daf-2(e1370) mutant strains of C. elegans maintained during their full life on plates supplemented with either 50 μM of urolithin A or with a control treatment and seeded with OP50 bacteria. Control plates without urolithin A contained an equivalent concentration of DMSO. Worm lifespan assays were performed at 20° C.
daf-16 encodes a FOXO transcription factor.

The test system of assay [6] is primary mouse hepatocytes. Nature of the assay: Autophagy western blot in primary hepatocytes. Format: cell-based. As to conditions: 16 hour. The method, then: Isolated primary hepatocytes were cultured in Medium 199 including 4.5 g/L glucose, 10% fetal calf serum, 0.1 mM NEAA, 10 mM HEPES and 50 μg/mL gentamicin. These cells were then treated with either 10 μM, 20 μM or 50 μM of urolithin A for a 16 hour period, after which cells were lysed and prepared for Western Blot analysis.
Protein expression levels were examined for autophagy related proteins LC3-I and II (Cell Signaling antibody #4108), p62 (Cell Signalling antibody #5114), AMPKα (Cell Signaling antibody #2603), and p-AMPKα(Cell Signaling antibody #2531). The housekeeping protein, HSP90 (BD Transduction Laboratories antibody #610418) level was measured as a loading control.

For assay [7], the system named is eat-2(ad465) mutant C. elegans. Nature of the assay: Lifespan assay, eat-2 mutant C. elegans. The format is in vivo. The protocol:
as §1
eat-2 encodes a protein involved in pharyngeal pumping.

A further assay relates to aged C57BL/6J mice. Nature of the assay: Running wheel activity in aged high fat diet mice. The format is in vivo, mouse. The settings on record: 50 mg/kg/day, 30 weeks, dark phase of day 2, FIG. 21. The protocol: To examine the effects of urolithin A treatment on motor activity in aged mammals 17-month-old C57BL/6J mice were treated with either a high fat rodent diet or a high fat rodent diet containing urolithin A mixed with food to reach a dosing of 50 mg/kg/day delivered to the mice.
Following 30 weeks of treatment with urolithin A, mice were housed individually and a 23 cm diameter running wheel was placed in the cage of each mouse. Spontaneous exercise activity was measured continuously over a two day period allowing the capture of the circadian rhythm of the exercise activity. Afterwards, mice were returned to their home cages.
Mice became habituated to the presence of the activity wheel on day 1. To measure the effect of urolithin A treatment on activity as well as muscle function, the cumulative distance that animals covered during the peak running period (dark phase) of day 2 was measured.

“Also recorded” adds a separate entry of the source.

In the case of `O=c1oc2cc(O)ccc2c2ccc(O)cc12` [Urolithin A, urolithin A], in [1], the “number of autophagic events (LGG-1::GFP dots per focal field)” value is reported as “increases the number of autophagic events”. Also, the “pharyngeal pumping (muscle function)” value in the assay on C. elegans is given as “decreases the age related decline in muscle activity”. The “LC3B expression (LC3B-FITC fluorescence)” value in assay [2] was “dose dependent”; in assay [2] (listed as UA) it was “dose response”. The “LC3B signal (shift of the histogram)” value in [2] (100 μM, 24 hrs, FIG. 26, listed as UA) was “increasing signal of LC3B; also recorded: increase in autophagy”. In assay [3] (30 μM, FIG. 8D), the “basal respiration, 10-day-old vs 1-day-old worms” value is recorded as “normalizes the respiration rates”. Further, the “uncoupled (FCCP) respiration, area under the curve” value in assay [3] (10-day-old worms, 30 μM urolithin A, 30-minute period, FIGS. 8A-8B) is reported as “significantly increased uncoupled respiration”. Besides, in assay [4], the “expression of the mitochondrial GFP reporter (myo-3 promoter)” value was “striking increase in GFP expression”. Also, the “Median lifespan” value in assay [5] (50 μM UA) was found to be 23 days; in assay [7] (50 μM UA), 37 days. Moreover, the “Lifespan extension compared to control (%)” value in assay [5] (50 μM UA vs 1% DMSO) is given as “+43.7%”; in assay [7] (50 μM UA vs 1% DMSO), “+76.2%”. Further, the P62 protein levels entry in assay [6] (10 μM, 20 μM or 50 μM) is on record as “decrease”. Besides, the “ratio of LC3-II to LC3-I” value in [6] (10 μM, 20 μM or 50 μM, FIG. 15) is “dose-dependent effect and increase”. Also, the “ratio of p-AMPKα/AMPK-u vs control cells” value in assay [6] (20 and […]) is “above 10 fold”. Besides, in the assay on aged C57BL/6J mice, the “increase in cumulative distance run” value came to 57%.

These data come from patent US11931335B2, “Enhancing autophagy or increasing longevity by administration of urolithins or precursors thereof” (Amazentis SA, priority 2012, dated 2024).
